Reference: the NIST ThermoML archive (doi:10.1021/je060271a)
Numbers after ± are expanded uncertainties.

Conditions: 323.15 K, Liquid, Vibrating tube method

CCCCC(=O)OCC(COC(=O)CCCC)(COC(=O)CCCC)COC(=O)CCCC [pentaerythritol tetrapentanoate]
Conditions	mass density [kg/m3]
2620 kPa	996.4 ± 1.2
2660.6 kPa	996.5 ± 1.2
2696.9 kPa	996.5 ± 1.2
2718.7 kPa	996.6 ± 1.2
2740.2 kPa	996.6 ± 1.2
2766.8 kPa	996.6 ± 1.2
2789.3 kPa	996.7 ± 1.2
2812.2 kPa	996.6 ± 1.2
2835.1 kPa	996.5 ± 1.2
2863.3 kPa	996.6 ± 1.2
2886.9 kPa	996.7 ± 1.2
2911 kPa	996.7 ± 1.2
2989.9 kPa	996.7 ± 1.2
3015.4 kPa	996.6 ± 1.2
3041 kPa	996.8 ± 1.2
3072.2 kPa	996.8 ± 1.2
3098.9 kPa	996.7 ± 1.2
3127.4 kPa	996.8 ± 1.2
3156.2 kPa	996.9 ± 1.2
3188.1 kPa	996.9 ± 1.2
3211.7 kPa	996.9 ± 1.2
3262.5 kPa	996.8 ± 1.2
3273.9 kPa	997 ± 1.2
3286 kPa	997.1 ± 1.2
3299.4 kPa	997 ± 1.2
3310.7 kPa	996.9 ± 1.2
3322.8 kPa	997 ± 1.2
3337.8 kPa	996.9 ± 1.2
3347.6 kPa	997 ± 1.2
3361.4 kPa	997.1 ± 1.2
3373 kPa	997 ± 1.2
3399.5 kPa	997 ± 1.2
3411.5 kPa	997.1 ± 1.2
3423.8 kPa	997.1 ± 1.2
3438.5 kPa	997.1 ± 1.2
3453.3 kPa	997.1 ± 1.2
3522.2 kPa	997 ± 1.2
3637.3 kPa	997.2 ± 1.2
3714.9 kPa	997.3 ± 1.2
3733.1 kPa	997.2 ± 1.2
3751.4 kPa	997.3 ± 1.2
3769.8 kPa	997.4 ± 1.2
3791.1 kPa	997.3 ± 1.2
3809.5 kPa	997.4 ± 1.2
3828.4 kPa	997.3 ± 1.2
3846.7 kPa	997.3 ± 1.2
3869.1 kPa	997.3 ± 1.2
3887.6 kPa	997.3 ± 1.2
3909.9 kPa	997.3 ± 1.2
3929 kPa	997.5 ± 1.2
3947.9 kPa	997.4 ± 1.2
3967.4 kPa	997.4 ± 1.2
3987.2 kPa	997.5 ± 1.2
4010 kPa	997.4 ± 1.2
4029.3 kPa	997.5 ± 1.2
4049 kPa	997.5 ± 1.2
4072.7 kPa	997.4 ± 1.2
4092.3 kPa	997.5 ± 1.2
4112.7 kPa	997.6 ± 1.2
4137.3 kPa	997.5 ± 1.2
4158.1 kPa	997.5 ± 1.2
4179.1 kPa	997.6 ± 1.2
4200.2 kPa	997.6 ± 1.2
4225 kPa	997.6 ± 1.2
4246.8 kPa	997.7 ± 1.2
4268.4 kPa	997.5 ± 1.2
4290.2 kPa	997.6 ± 1.2
4316 kPa	997.7 ± 1.2
4337.7 kPa	997.6 ± 1.2
4359.8 kPa	997.7 ± 1.2
4382.3 kPa	997.8 ± 1.2
4409 kPa	997.7 ± 1.2
4431.7 kPa	997.7 ± 1.2
4454.9 kPa	997.7 ± 1.2
4478.1 kPa	997.8 ± 1.2
4506.5 kPa	997.9 ± 1.2
4529.8 kPa	997.9 ± 1.2
4554.2 kPa	997.9 ± 1.2
4579 kPa	997.8 ± 1.2
4607.9 kPa	998 ± 1.2
4632.1 kPa	997.9 ± 1.2
4657.2 kPa	998 ± 1.2
4688.4 kPa	997.9 ± 1.2
4714.7 kPa	997.9 ± 1.2
4741.5 kPa	998 ± 1.2
4773.2 kPa	998 ± 1.2
4800.4 kPa	998 ± 1.2
4827.4 kPa	998 ± 1.2
4855.4 kPa	997.9 ± 1.2
4889.5 kPa	998.1 ± 1.2
4918.2 kPa	998.1 ± 1.2
4946.4 kPa	998.1 ± 1.2
4975.1 kPa	998.2 ± 1.2
4978.1 kPa	998.3 ± 1.2
4995.6 kPa	998.2 ± 1.2
4997.5 kPa	998.3 ± 1.2
5038.8 kPa	998.1 ± 1.2
5039.2 kPa	998.3 ± 1.2
5039.4 kPa	998.2 ± 1.2
5040 kPa	998.2 ± 1.2
5040.7 kPa	998.2 ± 1.2
5041.6 kPa	998.2 ± 1.2
5042.1 kPa	998.1 ± 1.2
5042.6 kPa	998.2 ± 1.2
5044 kPa	998.2 ± 1.2
5052.3 kPa	998.3 ± 1.2
5059.4 kPa	998.3 ± 1.2
5066.5 kPa	998.4 ± 1.2
5073.8 kPa	998.2 ± 1.2
5082.4 kPa	998.2 ± 1.2
5089.7 kPa	998.2 ± 1.2
5097 kPa	998.3 ± 1.2
5105.8 kPa	998.3 ± 1.2
5113.1 kPa	998.3 ± 1.2
5120.5 kPa	998.3 ± 1.2
5128 kPa	998.3 ± 1.2
5134.7 kPa	998.4 ± 1.2
5142.3 kPa	998.3 ± 1.2
5150.8 kPa	998.3 ± 1.2
5158.4 kPa	998.2 ± 1.2
5166.2 kPa	998.2 ± 1.2
5174.9 kPa	998.3 ± 1.2
5182.5 kPa	998.3 ± 1.2
5189.9 kPa	998.3 ± 1.2
5197.3 kPa	998.3 ± 1.2
5206 kPa	998.3 ± 1.2
5213.8 kPa	998.3 ± 1.2
5221.7 kPa	998.3 ± 1.2
5229.5 kPa	998.3 ± 1.2
5238.5 kPa	998.5 ± 1.2
5246.1 kPa	998.3 ± 1.2
5254.1 kPa	998.4 ± 1.2
5261.5 kPa	998.4 ± 1.2
5270.5 kPa	998.3 ± 1.2
5278.7 kPa	998.4 ± 1.2
5287.8 kPa	998.4 ± 1.2
5295.3 kPa	998.4 ± 1.2
5303 kPa	998.5 ± 1.2
5312.6 kPa	998.3 ± 1.2
5320.7 kPa	998.4 ± 1.2
5329.2 kPa	998.5 ± 1.2
5336.8 kPa	998.3 ± 1.2
5345.1 kPa	998.5 ± 1.2
5352.9 kPa	998.5 ± 1.2
5362.7 kPa	998.5 ± 1.2
5370.9 kPa	998.4 ± 1.2
5379 kPa	998.5 ± 1.2
5388.7 kPa	998.4 ± 1.2
5397.1 kPa	998.5 ± 1.2
5405.1 kPa	998.5 ± 1.2
5413.1 kPa	998.3 ± 1.2
5422.9 kPa	998.5 ± 1.2
5431 kPa	998.5 ± 1.2
5439.2 kPa	998.5 ± 1.2
5449.6 kPa	998.4 ± 1.2
5457.5 kPa	998.4 ± 1.2
5465.6 kPa	998.5 ± 1.2
5473.9 kPa	998.4 ± 1.2
5483.8 kPa	998.6 ± 1.2
5491.6 kPa	998.5 ± 1.2
5499.5 kPa	998.6 ± 1.2
